The IC50 is the concentration needed to halve the response being measured.

Test [1] has as its target T1, purine nucleoside phosphorylase (PNP) (Bos taurus, UniProt P55859).
T1 construct: Calf spleen PNP is used as the enzyme source; from tissue; host or cells: calf spleen
T1 sequence (P55859 1-289): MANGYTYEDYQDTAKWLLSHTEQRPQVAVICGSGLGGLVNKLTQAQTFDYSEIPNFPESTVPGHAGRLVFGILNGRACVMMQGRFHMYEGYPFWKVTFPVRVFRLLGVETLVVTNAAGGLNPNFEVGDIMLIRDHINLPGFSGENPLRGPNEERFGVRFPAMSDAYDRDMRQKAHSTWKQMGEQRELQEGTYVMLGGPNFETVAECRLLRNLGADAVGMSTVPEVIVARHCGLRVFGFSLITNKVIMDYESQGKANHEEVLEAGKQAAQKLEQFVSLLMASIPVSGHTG
The test is described as follows: PNP inhibition in vitro, enzymic determination of inorganic phosphate (PNP/xanthine oxidase), calf spleen PNP. It counts as biochemical. Particulars: 1 mM phosphate concentration; calf spleen PNP; substrate inosine. As for the experimental part:
PNP inhibition can be measured by measuring the formation of [^14- C]-[…] [Biomedicine, 33, 39 (1980)] using calf spleen as the enzyme source and 1 or 50 mM phosphate. Results are expressed as IC50 values, corresponding to the concentration of compound required to achieve a 50% reduction of the formation of hypoxanthine.
PNP inhibition can also be determined in vitro as follows: An enzymic method for the determination of inorganic phosphate (see Chem. Pharm. Bull., 1981, 29:1451-5), based on the principle of forming hydrogen peroxide with purine nucleoside phosphorylase (PNP) and xanthine oxidase, is used to calorimetrically measure the degree of linkage between enzyme and substrate (inosine). Calf spleen PNP is used as the enzyme source. The IC50 values for the compounds studied are determined graphically at two phosphate concentrations (1 and 50 mM) from a plot of percent inhibition versus compound concentration.

The subject of test [2] is CCRF-CEM cells. The test is described as follows: CCRF-CEM cell assay: potentiation of the cell growth inhibitory activity (cytotoxicity) of 2'-deoxyguanosine (d-Guo). The class given is cell-based. Conditions: Homo sapiens, d-Guo 10 μM, 72 hours. As for the experimental part:
The selective suppression of spontaneous T-cell proliferation in vitro is measured by the potentiation of the cell growth inhibitory activity (cytotoxicity) of 2'-deoxyguanosine (d-Guo) by the compounds of the invention, determined as follows: Human CCRF-CEM cells are grown in RPMI-1640 medium. To suspension cultures of these cells, d-Guo at a fixed concentration (10 μM) and the candidate PNP inhibitor at varied concentrations are added and the number of cells are determined in a Coulter counter 24, 48, and 72 hours thereafter. […] This method is similar to that previously used to determine the effectiveness of PNP inhibitors on potentiation of the toxicity of d-Guo. [See D. A. Shewach et al., Cancer Res., 46, 519 (1986); J. C. Sircar et al., Agents and Actions, 21, 253 (1987), also Methods in Pharmacology, D. M. Paten, ed. 1985, pp. 147-162].

Test [3] concerns purine nucleoside phosphorylase (PNP). The test is described as follows: PNP inhibition in vivo: plasma inosine level in mice after oral dose. Particulars: at a dose of e.g. 10 mg/Kg p.o. Here is the method: Briefly, mice are treated orally with the PNP inhibitor suspended in fortified cornstarch (3% cornstarch suspension in water with 0.33% Tween 80 and 5% PEG 400) at a final volume of 10 ml/kg. One or more hours after a single oral dose of compound, the mice are bled by cardiac puncture into 25 U/ml heparin to obtain plasma. The samples are analyzed for both inosine and drug levels by a gradient reverse-phase high performance liquid chromatography (HPLC) method (see Anal Chem, 1977, 49:2237-41). Quantitation is performed using an internal standard method with 2',3'-dideoxyinosine (DDI) as the internal standard.

Test [4] has as its system collagen II induced arthritis. The experiment in a line: Antiarthritic activity, collagen II induced arthritis in mice model. Particulars: 20 mg/Kg/day; orally once daily, day 1 through day 42. The class given is in vivo, DBA/1LacJ female mice. As for the experimental part: The antiarthritic activity can be determined in the collagen II induced arthritis in mice model. DBA/1LacJ female mice, 6-8 weeks old, are immunized with 100 μg of chicken type II collagen emulsified in Freund's complete adjuvant (FCA) by injecting at the base of the tail on day 0. On day 17 after collagen injection, the immune response to type II collagen is boosted with a subcutaneous injection of 200 μg LPS solubilized in PBS. Paws are examined on days 17, 21, 24, 28, 31, 35, and 42 and scored for the symptoms of arthritis based on criteria such as inflammation, swelling and ankylosis. Compounds are suspended in corn starch vehicle and administered orally to mice once daily beginning on day 1 and continuing through day 42.

In test [5] the test system is transplant rejection. The test is described as follows: Protection against transplant rejection, mouse tail skin transplantation procedure. It counts as in vivo, mouse (C57BL/10-SnJ and B10.BR/SgSnJ). From the text: Protection against transplant rejection can be determined in a mouse tail skin transplantation procedure.
Mice are anesthetized with tribromoethanol i.p. injection according to the method of Papaioannou and Fox (Lab. Animal Science 1993;43:189-92). The mouse tail skin transplant rejection model is a modification of that described by Baily and Usama, (Transpl. Bull. 1960;7:424-5). Four skin grafts per mouse are exchanged between strains [C57BL/10-SnJ (H-2K^b) and B10.BR/SgSnJ (H-2K^k)] at surgery (d0). Fitted skin grafts are made with a scalpel, and tail graft sites are protected with tubing for 2 days following surgery. Mouse tails are evaluated at day 7 for missing grafts. Only those graft sites that have patent grafts at day 7 are evaluated at later scoring intervals. Grafts are scored numerically for signs of rejection at ~weekly scoring intervals starting day 14. Dose-group mean graft scores are compared statistically.

Turning to `Nc1nc2c([C@@H](CO)c3ccccc3F)c[nH]c2c(=O)[nH]1` [Example 1, 2-amino-7-[1-(2-fluorophenyl)-2(R)-hydroxyethyl]-3,5-dihydro-4H-pyrrolo[3,2-d]pyrimidin-4-one], the IC50 is roughly 10 nM in test [1] and roughly 75 nM in test [2]. Moreover, in test [3], the “plasma level of inosine” value is “significant increase in the plasma level of inosine”. The antiarthritic activity entry in test [4] is recorded as “effective”. For the same molecule, the “protection against transplant rejection” value in test [5] (50 mg/Kg/day, mouse) is listed as “effective in protecting against transplant rejection”. The “transplant rejection model, combination with cyclosporin” value in test [5] (combination of compound and cyclosporin vs either alone) is reported as “superior to either cyclosporin or the PNP inhibitor alone”.
With `Nc1nc2c([C@@H](CO)c3ccccc3)c[nH]c2c(=O)[nH]1` [Example 3f, 2-Amino-7-(2(S)-hydroxy-1-phenylethyl)-3,5-dihydro-4H-pyrrolo[3,2-d]-pyrimidin-4-one], the values for the IC50 in test [1] and in test [2] were roughly 10 nM and roughly 100 nM, respectively. For the same molecule, the “plasma level of inosine” value in test [3] is recorded as “significant increase in the plasma level of inosine”.

For the origin of these results see patent US6043365A, “Preparation of 2-amino-7-(1-substituted-2-hydroxyethyl)-3, 5-dihydropyrrolo[3,2-d]pyrimidin-4-ones” (Novartis AG, priority 1998, dated 2000).
